# “And” between values parts separate entries of the source, which are not always exact repeats. Equal values may be shown once. Read-outs that look alike come from different tables or passages of the source.
# How the values were obtained:
# [1] = biological target: T1, human NTSR2 (Homo sapiens, UniProt O95665); experiment: NTSR2 competition binding, membranes of transiently transfected HEK 293T cells, [3H]NT(8-13); details: human NTSR2, HEK 293T membranes, [3H]NT(8-13) 0.50 nM; mean ± SEM
# T1 construct: host or cells: HEK 293T cells, transient transfection
# T1 sequence (O95665 whole entry): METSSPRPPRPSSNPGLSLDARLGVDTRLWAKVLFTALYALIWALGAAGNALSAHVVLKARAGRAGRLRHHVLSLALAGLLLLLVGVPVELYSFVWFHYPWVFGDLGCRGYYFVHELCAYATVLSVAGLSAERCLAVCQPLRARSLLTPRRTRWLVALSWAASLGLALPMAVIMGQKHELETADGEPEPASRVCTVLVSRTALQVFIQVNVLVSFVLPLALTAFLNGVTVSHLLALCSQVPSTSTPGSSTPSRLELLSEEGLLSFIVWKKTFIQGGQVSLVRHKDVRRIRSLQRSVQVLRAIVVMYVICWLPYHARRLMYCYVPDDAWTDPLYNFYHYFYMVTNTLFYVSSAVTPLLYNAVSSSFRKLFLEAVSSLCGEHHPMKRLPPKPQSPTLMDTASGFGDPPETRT
# Procedure: (§1) Radioligand binding experiments with the NTSR1 and NTSR2 receptor subtypes were performed as described previously. […] NTSR2 binding was measured using homogenates of membranes from HEK 293T cells, which were transiently transfected with DNA encoding the human NTSR2 (cDNA Resource Center, Bloomsberg, PA, USA) using the Mirus TransIT-293 transfection reagent (Peqlab, Erlangen, Germany). […] Nonspecific binding was determined in the presence of 10 μM NT(8-13), protein concentration was determined by the method of Lowry using bovine serum albumin as a standard. A data analysis of the radioligand displacement curves was accomplished by non-linear regression analysis using the algorithms in PRISM 9.0 (GraphPad Software, San Diego, CA, USA). EC50 values derived from the resulting dose response curves were transformed into the corresponding Ki values applying the equation of Cheng and Prusoff.
# [2] = biological target: human NTSR1 (Homo sapiens, UniProt P30989); experiment: NTSR1 competition binding, membranes of CHO cells stably expressing human NTSR1, [3H]neurotensin; details: [3H]neurotensin 0.50 nM, mean ± SEM ([natRe]2: ± SD, n = 2)
# Chain of human NTSR1 (P30989 whole entry): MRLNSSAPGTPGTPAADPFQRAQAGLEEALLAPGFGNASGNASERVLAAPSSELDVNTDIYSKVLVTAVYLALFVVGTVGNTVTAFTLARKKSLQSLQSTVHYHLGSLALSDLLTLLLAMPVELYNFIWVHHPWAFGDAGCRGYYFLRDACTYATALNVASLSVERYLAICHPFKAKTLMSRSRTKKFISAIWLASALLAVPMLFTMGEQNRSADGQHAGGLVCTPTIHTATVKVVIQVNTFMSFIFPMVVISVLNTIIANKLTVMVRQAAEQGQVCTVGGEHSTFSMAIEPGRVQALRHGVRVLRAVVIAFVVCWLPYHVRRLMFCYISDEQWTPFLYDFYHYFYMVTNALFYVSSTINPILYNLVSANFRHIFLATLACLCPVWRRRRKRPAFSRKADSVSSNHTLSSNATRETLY
# Procedure: as §1
# [3] = system: NTSR1-positive HT-29 cells; experiment: Competitive cellular uptake assay; assay type: cell-based; details: Homo sapiens, 37 °C, 1 h
# Procedure: For the determination of the IC50 values, 8–10 concentrations of FAUC468 were used. The HT-29 cells were seeded on the day of the experiment in a 96-well-plate (~500.000 cells per well in 200 µL cell medium) and were incubated in a humidified atmosphere at 37 °C containing 5% CO2. Subsequently, the 96-well-plate was centrifuged at 850 rpm for 2 min following aspiration of the cell medium. The cells were washed with cell medium (200 µL), the plate was centrifuged at 850 rpm for 2 min, and the supernatant was aspirated. The incubation solutions (0.009–900 nM FAUC468 in 90 µL cell medium per well) and the respective radiotracer (10 µL, 100 kBq per well) were given to the wells, and the plates were incubated at 37 °C for 1 h. After the incubation time, the plate was centrifuged at 850 rpm for 2 min. The supernatant was removed, followed by two washing steps with the cell medium (200 µL) and PBS (200 µL). Sodium hydroxide solution (200 µL, 2 M, 37 °C) was added, and after 7 min, solutions of the cell homogenates were transferred into tubes, which were measured for radioactivity in a γ-counter (Wallac Wizard, Perkin Elmer, Waltham, MA, USA). […]
# [4] = system: HT-29 cells; details: cited from earlier work
# [5] = biological target: NTSR2; parameters: method as in PMID 33268796; details: cited from earlier work
# [6] = biological target: NTSR1; parameters: method as in PMID 33268796; details: cited from earlier work
compound,measurement,setting,value
"COc1cccc(OC)c1-c1cc(C(=O)NC2(C(=O)O)C3CC4CC(C3)CC2C4)nn1-c1ccc(-c2cn(CCCN(C)CCCNC(=O)c3ccc(NN)nc3)nn2)cc1C(C)C (centres unmarked) [Compound 5, 2-(5-(2,6-Dimethoxyphenyl)-1-(4-(1-(3-((3-(6-hydrazineylnicotinamido)propyl)-(methyl)amino)propyl)-1H-1,2,3-triazol-4-yl)-2-isopropylphenyl)-1H-pyrazole-3-carboxamido)-adamantane-2-carboxylic Acid]",Ki,[1],270 ± 94 nM
"COc1cccc(OC)c1-c1cc(C(=O)NC2(C(=O)O)C3CC4CC(C3)CC2C4)nn1-c1ccc(-c2cn(CCCN(C)CCCNC(=O)CCn3cc(CC(N)C(=O)O)nn3)nn2)cc1C(C)C (centres unmarked) [Compound 6, 2-(1-(4-(1-(3-((3-(3-(4-(2-Amino-2-carboxyethyl)-1H-1,2,3-triazol-1-yl)-propanamido)propyl)(methyl)amino)propyl)-1H-1,2,3-triazol-4-yl)-2-isopropylphenyl)-5-(2,6-dimethoxyphenyl)-1H-pyrazole-3-carboxamido)adamantane-2-carboxylic Acid]",Ki,[2],0.3 nM and 0.32 nM
same,Ki,[1],85 ± 13 nM
COc1cccc(OC)c1-c1cc(C(=O)NC2(C(=O)O)C3CC4CC(C3)CC2C4)nn1-c1ccc(-c2cn(CCCN(C)CCCNC(=O)CN3CCN(CC(=O)O)CCN(CC(=O)O)CCN(CC(=O)O)CC3)nn2)cc1C(C)C (centres unmarked) [FAUC468],Ki,[2],1.9 ± 0.7 nM
same,Ki,[1],100 ± 3 nM
same,IC50,"[3]; radiotracer [99mTc]1, read-out: IC50 of FAUC468 for the displacement of [99mTc]1",1.93 nM
same,IC50,"[3]; radiotracer [99mTc]2, read-out: IC50 of FAUC468 for the displacement of [99mTc]2",3.12 nM
COc1cccc(OC)c1-c1cc(C(=O)NC2(C(=O)O)C3CC4CC(C3)CC2C4)nn1-c1ccnc2cc(Cl)ccc12 (centres unmarked) [SR 48692],IC50,[4]; [125I-Tyr3]NT(8-13) as radioligand,30 nM
COc1cccc(OC)c1-c1cc(C(=O)NC2(C(=O)O)C3CC4CC(C3)CC2C4)nn1-c1ccc(C(=O)N(C)CCCN(C)C)cc1C(C)C (centres unmarked) [SR 142948A],IC50,[4],0.32 nM
NTS: 13-amino-acid peptide originally isolated from bovine hypothalami,Ki,[5],5 to 7 nM
same,Ki,[6],0.15 to 0.5 nM

# — PMC12196348, “^99mTc-Labeled Diarylpyrazoles for Single-Emission Computer Tomography Imaging of Neurotensin Receptor-Positive Tumors: A Comparative Preclinical Study” (Pharmaceutics, 2025)
